Data taken from patent publication US4103011A, “Novel penicillin compounds and process for preparation thereof” (priority 1976, dated 1978).
Counter-ions that a name gives are not always drawn. Like-named read-outs stand apart in the source and are kept apart here.

What was measured:
[1] = system: Streptococcus pyogenes 65A; assay: In vitro antibacterial activity (MIC); type: cell-based; settings: Streptococcus pyogenes 65A; read-out: minimum inhibitory concentration (MIC)
Source text: (§1) In vitro antibacterial activity against 20 strains of bacteria
(§2) The numerals in the table show minimum inhibitory concentrations (MIC)

[2] = system: Escherichia coli P-5101; assay: In vitro antibacterial activity (MIC); type: cell-based; settings: Escherichia coli, P5101, read-out: minimum inhibitory concentration (MIC)
Source text: as §1, §2

[3] = system: Escherichia coli P-140a; assay: In vitro antibacterial activity (MIC); type: cell-based
Source text: as §1, §2

[4] = system: Proteus rettgeri P-2503; assay: In vitro antibacterial activity (MIC); type: cell-based; settings: Providencia rettgeri
Source text: as §1, §2

[5] = system: Escherichia coli NIHJ JC-2; assay: In vitro antibacterial activity (MIC); type: cell-based
Source text: as §1, §2

[6] = system: Klebsiella pneumoniae No. 13; assay: In vitro antibacterial activity (MIC); type: cell-based; settings: Klebsiella pneumoniae No. 13; read-out: minimum inhibitory concentration (MIC)
Source text: as §1, §2

[7] = system: Salmonella enteritidis No. 1891; assay: In vitro antibacterial activity (MIC); type: cell-based; settings: Salmonella enterica; Salmonella enteritidis No. 1891; read-out: minimum inhibitory concentration (MIC)
Source text: as §1, §2

[8] = system: Serratia mercescens IFO 3736; assay: In vitro antibacterial activity (MIC); type: cell-based; settings: IFO3736; Serratia mercescens IFO 3736; read-out: minimum inhibitory concentration (MIC)
Source text: as §1, §2

[9] = system: Staphylococcus aureus No. 50774; assay: In vitro antibacterial activity (MIC); type: cell-based; settings: Staphylococcus aureus No. 50774; read-out: minimum inhibitory concentration (MIC)
Source text: as §1, §2

[10] = system: Staphylococcus aureus 209P JC-1; assay: In vitro antibacterial activity (MIC); type: cell-based; settings: Staphylococcus aureus 209P JC-1; read-out: minimum inhibitory concentration (MIC)
Source text: as §1, §2

[11] = system: Proteus morganii Kono; assay: In vitro antibacterial activity (MIC); type: cell-based; settings: Morganella morganii, read-out: minimum inhibitory concentration (MIC)
Source text: as §1, §2

[12] = system: Streptococcus faecalis P-2473; assay: In vitro antibacterial activity (MIC); type: cell-based; settings: Enterococcus faecalis, P2473; Streptococcus faecalis P-2473; read-out: minimum inhibitory concentration (MIC)
Source text: as §1, §2

[13] = system: Shigella flexneri 4a P-330; assay: In vitro antibacterial activity (MIC); type: cell-based; settings: 4AP330, read-out: minimum inhibitory concentration (MIC)
Source text: as §1, §2

[14] = system: Pseudomonas aeruginosa No.12; assay: In vitro antibacterial activity (MIC); type: cell-based; settings: Pseudomonas aeruginosa, NO.12, read-out: minimum inhibitory concentration (MIC)
Source text: as §1, §2

[15] = system: Pseudomonas aeruginosa Tsuchijima; assay: In vitro antibacterial activity (MIC); type: cell-based; settings: Pseudomonas aeruginosa Tsuchijima; read-out: minimum inhibitory concentration (MIC)
Source text: as §1, §2

[16] = system: Salmonella typhimurium S-9; assay: In vitro antibacterial activity (MIC); type: cell-based; settings: Salmonella enterica; Salmonella typhimurium S-9; read-out: minimum inhibitory concentration (MIC)
Source text: as §1, §2

[17] = system: Enterobacter cloacae P-2540; assay: In vitro antibacterial activity (MIC); type: cell-based
Source text: as §1, §2

[18] = system: Corynebacterium pyogenes C-21; assay: In vitro antibacterial activity (MIC); type: cell-based; settings: Rhodococcus (subgen. Prescottella) equi, C21; Corynebacterium pyogenes C-21; read-out: minimum inhibitory concentration (MIC)
Source text: as §1, §2

[19] = system: Shigella flexneri 2a; assay: In vitro antibacterial activity (MIC); type: cell-based; settings: read-out: minimum inhibitory concentration (MIC)
Source text: as §1, §2

[20] = system: Proteus mirabilis P-2381; assay: In vitro antibacterial activity (MIC); type: cell-based; settings: Proteus mirabilis, P2381, read-out: minimum inhibitory concentration (MIC)
Source text: as §1, §2

[21] = system: Pseudomonas aeruginosa No. 12; assay: In vivo efficacy against systemic infection; design: species or system male mice (ddY); settings: NO.12, in Mus musculus, twice, about 5 minutes and 6 hours after infection, read-out: ED50 (median effective dose)
Method: (§3) The contents in the vials (No. A and No. C) prepared in Example 17 were each dissolved in deionized water, and injections having various concentrations were prepared.
(§4) Compounds A, B, F, G, H and M were dissolved in deionized water.
(§5) Mice: male mice (ddY) weighting about 20g
Pseudomonas aeruginosa No. 12;
(§6) Intraperitoneal infection with 50 to
(§7) of a bacterial suspension in tryptosoy
(§8) twice, about 5 minutes and 6 hours after
Pseudomonas aeruginosa No. 12
(§9) calculated in accordance with the Behrens-Kaerber method [Arch. Exp. Path

[22] = system: Staphylococcus aureus No. 50774; assay: In vivo efficacy against systemic infection; design: species or system male mice (ddY); settings: NO.50774, in Mus musculus, 336 h, sc, twice, about 5 minutes and 6 hours after infection, read-out: ED50 (median effective dose)
Method: as §3
(§10) Compounds A, B, F, G, H and M were dissolved in deionized water. Compounds C, D, E and J were dissolved in an aqueous solution of sodium carbonate (pH 8-9) to prepare injections of various concentrations.
(§11) Each of the injections was administered to mice under the conditions described below, and the median effective doses (ED50) obtained are shown in Table II.
as §5
Staphylococcus aureus No. 50774;
Intravenous infection with 50 to 100
LD50 (about 5 × 10^8cells/mouse) of a
bacterial suspension in saline.
as §8
Staphylococcus aureus No. 50774 14 days
The numerals in the table show ED50 (mg/kg). ED50 values were
as §9

[23] = system: Escherichia coli P-5101; assay: In vivo efficacy against systemic infection; design: species or system male mice (ddY); settings: P5101, in Mus musculus, 168 h, twice, about 5 minutes and 6 hours after infection, read-out: ED50 (median effective dose)
Method: as §3, §4, §5, §6, §7, §8, §9

[24] = system: bacteria (systemic infection); assay: In vivo efficacy against systemic infection, overall conclusions; design: species or system male mice (ddY); settings: Table II
Method: as §3, §10, §11

[25] = in vivo; settings: mouse

Q: For `CC1(C)S[C@@H]2[C@H](NC(=O)[C@H](NC(=O)c3c[nH]c4nc(N)ncc4c3=O)c3ccc(O)cc3)C(=O)N2[C@H]1C(=O)O` [Compound G, D-α-(5,8-Dihydro-2-amino-5-oxopyrido[2,3-d]pyrimidine-6-carboxamido)-p-hydroxybenzylpenicillin sodium salt], which MIC [1] is on record?
A: The MIC was < 0.1 µg/mL.

Q: And the MIC [2]?
A: The MIC was 3.13 µg/mL.

Q: And the “minimum inhibitory concentration (MIC)” value [3]?
A: The value was 50 µg/mL.

Q: What about the MIC ([4]; P2503, read-out: minimum inhibitory concentration (MIC)) of the same molecule?
A: The MIC was 6.25 µg/mL.

Q: What about the MIC ([5]; Escherichia coli, NIHJJC2, read-out: minimum inhibitory concentration (MIC)) of the same molecule?
A: Its MIC is 6.25 µg/mL.

Q: What about the MIC [6] of the same molecule?
A: Its MIC is 25 µg/mL.

Q: And the MIC [7]?
A: The MIC was 0.78 µg/mL.

Q: What about the MIC [8] of the same molecule?
A: Its MIC is 12.5 µg/mL.

Q: And the MIC [9]?
A: Its MIC is 0.39 µg/mL.

Q: And the MIC [10]?
A: The MIC was 0.39 µg/mL.

Q: What about the MIC [11] of the same molecule?
A: Its MIC is 6.25 µg/mL.

Q: And the MIC [12]?
A: Its MIC is 1.56 µg/mL.

Q: And the MIC [13]?
A: Its MIC is 6.25 µg/mL.

Q: What about the MIC [14] of the same molecule?
A: Its MIC is 3.13 µg/mL.

Q: And the MIC [15]?
A: The MIC was 0.39 µg/mL.

Q: What about the MIC [16] of the same molecule?
A: The MIC was 1.56 µg/mL.

Q: What about the MIC ([17]; Enterobacter cloacae, P2540, read-out: minimum inhibitory concentration (MIC)) of the same molecule?
A: The MIC was 6.25 µg/mL.

Q: And the MIC [18]?
A: The MIC was 0.78 µg/mL.

Q: What about the MIC [19] of the same molecule?
A: Its MIC is 3.13 µg/mL.

Q: What about the MIC [20] of the same molecule?
A: Its MIC is 3.13 µg/mL.

Q: What about the ED50 ([21]; iv) of the same molecule?
A: Its ED50 is 3.9 mg/kg.

Q: What about the ED50 ([21]; sc) of the same molecule?
A: The ED50 was 4.4 mg/kg.

Q: And the ED50 [22]?
A: The ED50 was ~0.8 mg/kg.

Q: What about the ED50 ([23]; iv) of the same molecule?
A: The ED50 was 8.8 mg/kg.

Q: And the ED50 ([23]; sc)?
A: The ED50 was 11.5 mg/kg.

Q: And the “antibacterial activity in vivo (in words)” value [24]?
A: Its value is “almost comparable”.

Q: And the LD50 at 168 h ([25]; iv)?
A: Its LD50 at 168 h is 1000 mg/kg.

Q: What about the selectivity ratio ([25]; iv) of the same molecule?
A: The selectivity ratio was 256.

Q: What about the LD50 at 168 h ([25]; sc) of the same molecule?
A: Its LD50 at 168 h is 1000 mg/kg.

Q: What about the selectivity ratio ([25]; sc) of the same molecule?
A: The selectivity ratio was 227.

Q: For `CNc1ncc2c(=O)c(C(=O)N[C@@H](C(=O)N[C@@H]3C(=O)N4[C@@H]3SC(C)(C)[C@@H]4C(=O)O)c3ccc(O)cc3)c[nH]c2n1` [Compound F, D-α-(5,8-Dihydro-2-methylamino-5-oxopyrido[2,3-d]pyrimidine-6-carboxamido)-p-hydroxybenzylpenicillin sodium salt], which MIC [1] is on record?
A: The MIC was < 0.1 µg/mL.

Q: And the MIC [2]?
A: Its MIC is 3.13 µg/mL.

Q: And the “minimum inhibitory concentration (MIC)” value [3]?
A: The value was 25 µg/mL.

Q: And the MIC ([4]; P2503, Proteus rettgeri P-2503, read-out: minimum inhibitory concentration (MIC))?
A: Its MIC is 12.5 µg/mL.

Q: And the MIC ([5]; NIHJJC2, Escherichia coli NIHJ JC-2, read-out: minimum inhibitory concentration (MIC))?
A: Its MIC is 12.5 µg/mL.

Q: What about the MIC [6] of the same molecule?
A: The MIC was 25 µg/mL.

Q: And the MIC [7]?
A: The MIC was 1.56 µg/mL.

Q: What about the MIC [8] of the same molecule?
A: Its MIC is 12.5 µg/mL.

Q: And the MIC [9]?
A: Its MIC is 0.39 µg/mL.

Q: And the MIC [10]?
A: The MIC was 0.39 µg/mL.

Q: What about the MIC ([11]; Proteus morganii Kono) of the same molecule?
A: Its MIC is 12.5 µg/mL.

Q: And the MIC [12]?
A: The MIC was 1.56 µg/mL.

Q: And the MIC [13]?
A: The MIC was 6.25 µg/mL.

Q: What about the MIC [14] of the same molecule?
A: The MIC was 6.25 µg/mL.

Q: What about the MIC [15] of the same molecule?
A: The MIC was 0.78 µg/mL.

Q: What about the MIC [16] of the same molecule?
A: Its MIC is 1.56 µg/mL.

Q: And the MIC ([17]; P2540, Enterobacter cloacae P-2540, read-out: minimum inhibitory concentration (MIC))?
A: The MIC was 12.5 µg/mL.

Q: What about the MIC [18] of the same molecule?
A: Its MIC is 0.78 µg/mL.

Q: And the MIC [19]?
A: The MIC was 3.13 µg/mL.

Q: And the MIC [20]?
A: The MIC was 3.13 µg/mL.

Q: What about the ED50 ([21]; iv) of the same molecule?
A: The ED50 was 5.7 mg/kg.

Q: And the ED50 ([21]; sc)?
A: Its ED50 is 4.8 mg/kg.

Q: What about the ED50 [22] of the same molecule?
A: The ED50 was ~0.7 mg/kg.

Q: And the ED50 ([23]; iv)?
A: The ED50 was 12 mg/kg.

Q: And the ED50 ([23]; sc)?
A: Its ED50 is 6.3 mg/kg.

Q: And the “antibacterial activity in vivo (in words)” value [24]?
A: The value was “almost comparable”.

Q: And the LD50 at 168 h ([25]; iv)?
A: The LD50 at 168 h was 1410 mg/kg.

Q: What about the selectivity ratio ([25]; iv) of the same molecule?
A: Its selectivity ratio is 248.

Q: And the LD50 at 168 h ([25]; sc)?
A: The LD50 at 168 h was 1410 mg/kg.

Q: And the selectivity ratio ([25]; sc)?
A: The selectivity ratio was 295.
